# Like-named read-outs stand apart in the source and are kept apart here.
# What was measured:
# [1] = molecular target: human IRE-1α (GST-IRE-1α) (Homo sapiens (Human), UniProt O75460); test: IRE-1α assay in vitro: cleavage of Cy5/BHQ2-labelled mini-XBP-1 mRNA stem-loop substrate; type: biochemical; conditions: average IC50 for inhibition of IRE-1α
# Description: In some embodiments IRE-la inhibitor compounds form a complex with IRE-1α. […] Other substrates also can be used to detect cleavage. See US 2007/0105123.
# A fusion protein comprising glutathione S transferase (GST) and human IRE-1α (GST-IRE-1α) obtained from a 500 ml baculovirus-infected insect cell culture can be used to measure IRE-1α activity in vitro.
# Five μl of a reaction mixture comprising IX reaction buffer (5× reaction buffer is 100 mM Hepes pH 7.5, 250 mM KOAc, 2.5 mM MgCl2), 3 mM DTT, and 0.4% polyethylene glycol water is added to each well of 384 well plates. Twenty-five nanoliters of a 1 mM test compound solution are added to test wells. Three μl of a […] IRE-1α preparation are added to each test well and to positive control wells (final concentration 5.82 ng/well). Negative control wells contain only reaction mixture and test compound.
# After spinning the plates at 1200 rpm for 30 seconds, 3 μl of an IRE-1α human mini-XBP-1 mRNA stem-loop substrate 5′-[…]-3′ (SEQ ID NO:1), labeled with the fluorescent dye Cy5 at the 5′ end and Black Hole Quencher 2 (BH2) at the 3′ end, are added to each well of a control plate. The plates are again spun at 1200 rpm for 30 seconds. Final concentrations for the assay are: 63 nM IRE-1α substrate, 5.82 ng IRE-1α protein, and 2.5 μM test compound.
# The plates are covered with lids and incubated for one hour at 30° C. The plates are then transferred to an ACQUEST™ microplate reader. Data is analyzed using data analysis software, and the percent activity of IRE-1α is calculated.
# IC50 for inhibition of IRE-1α of compounds identified in Table 1 was measured as described in EXAMPLE 35.
# [2] = test system: IRE-1α-mediated XBP-1 splicing in human myeloma MM.1s cells; test: Cellular EC50: endogenous XBP-1 splicing in myeloma cells by RT-PCR (DTT stress); type: cell-based; conditions: MM1.S, read-out: EC50_av
# Description: Human myeloma MM.1s cells are incubated with a compound for 1.25 hours before stressing the cells with 2 mM dithiothreitol (DTT). After an additional 45 minutes (2 hours total) with compound and DTT, the cells are harvested with TRIZOL® (a mono-phasic solution of phenol and guanidine isothiocyanate), and total RNA is prepared as directed by the manufacturer (Invitrogen). Human XBP-1 is amplified by RT-PCR with the following primers, which flank the 26 base unconventional intron excised by IRE-1α:
# RT-PCR of unstressed (U) cells then generates the upper band. When cells are stressed (S) with the endoplasmic reticulum (ER) stressing agent DTT, IRE-1α is activated due to accumulating unfolded protein and the resulting RT-PCR, product is 26 base pairs shorter.
# Compounds which pass specificity assays are assayed for cellular EC50 using endogenous XBP-1 splicing in myeloma cells. XBP-1 is regulated through the excision of a 26 nucleotide intron from the XBP-1 mRNA by the highly specific endoribonuclease activity of IRE-1α. […] This splicing event is used to measure IRE-1α activity on XBP-1 mRNA in cells and tissues.
# Briefly, compounds are incubated in the presence or absence of an ER stress agent (e.g., DTT), and the ratio of XBP-1u (unspliced) to XBP-1 s (spliced) is quantified by RT-PCR. The ED50 is determined as the 50% XBP-1s to total XPB-1 levels.
# [3] = average cellular EC50, XBP-1 splicing in myeloma cells
# Sequence of human IRE-1α (GST-IRE-1α) (O75460 19-977): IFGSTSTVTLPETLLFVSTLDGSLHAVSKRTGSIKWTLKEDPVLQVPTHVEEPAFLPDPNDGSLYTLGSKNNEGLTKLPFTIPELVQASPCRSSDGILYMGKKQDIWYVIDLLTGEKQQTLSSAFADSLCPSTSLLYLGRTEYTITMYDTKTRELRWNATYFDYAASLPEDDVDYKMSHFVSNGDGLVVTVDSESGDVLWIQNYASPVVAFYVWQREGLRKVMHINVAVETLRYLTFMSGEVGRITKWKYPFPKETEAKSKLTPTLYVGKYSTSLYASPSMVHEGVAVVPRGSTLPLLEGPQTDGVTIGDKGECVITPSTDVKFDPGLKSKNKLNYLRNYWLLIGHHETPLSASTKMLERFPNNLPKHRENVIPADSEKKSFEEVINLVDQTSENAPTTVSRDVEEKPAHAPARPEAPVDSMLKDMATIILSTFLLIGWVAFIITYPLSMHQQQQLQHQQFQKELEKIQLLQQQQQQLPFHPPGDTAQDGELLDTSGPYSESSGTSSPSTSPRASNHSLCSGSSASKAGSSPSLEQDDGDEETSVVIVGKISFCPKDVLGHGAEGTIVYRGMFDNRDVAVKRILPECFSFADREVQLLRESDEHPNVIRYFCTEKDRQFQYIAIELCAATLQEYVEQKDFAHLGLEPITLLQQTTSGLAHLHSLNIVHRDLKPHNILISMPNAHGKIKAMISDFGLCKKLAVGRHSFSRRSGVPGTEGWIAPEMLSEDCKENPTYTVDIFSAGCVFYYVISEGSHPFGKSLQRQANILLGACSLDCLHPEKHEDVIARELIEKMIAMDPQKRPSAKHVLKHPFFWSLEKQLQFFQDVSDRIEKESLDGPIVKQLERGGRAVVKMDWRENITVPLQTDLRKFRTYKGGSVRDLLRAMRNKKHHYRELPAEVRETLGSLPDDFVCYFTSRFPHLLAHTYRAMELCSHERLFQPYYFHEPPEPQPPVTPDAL
SMILES,IC50 [1] [nM],"EC50 [2, 3] [µM]",EC50 [2] [µM]
CCNC(=O)CCc1c(C)c2cc(OC)c(O)c(C=O)c2oc1=O [Example 174],< 100,< 10,–
O=Cc1c(O)ccc2nc(-c3ccc(C(=O)NCCN4CCOCC4)cc3)ccc12 [Example 45],< 1000,< 10,–
Cc1c(-c2cccc(C(=O)NCCN3CCOCC3)c2)c(=O)oc2c(C=O)c(O)ccc12 [Example 11],< 100,< 10,–
COCCOc1cc2c(C)c(CCC(=O)NCCN(C)C)c(=O)oc2c(C=O)c1O [Example 185],< 100,–,> 10
Cc1cc(=O)oc2c(C=O)c(O)c(Cl)cc12 [Example 22],< 100,< 10,–
COc1cc2c(C)c(-c3ccc(N(C)C)nc3)c(=O)oc2c(C=O)c1O [Example 115],< 1000,< 10,–
COc1cc2c3c(c(=O)oc2c(C=O)c1O)CCC3 [Example 198],> 1000,–,< 10
Cc1nc(-c2cc3ccc(O)c(C=O)c3oc2=O)sc1C(=O)NCCN1CCOCC1 [Example 109],< 100,< 10,–
COCc1cc(=O)oc2c(C=O)c(O)c(OC)cc12 [Example 136],< 1000,< 10,–
CCc1cc2c(C)c(-c3ccc(C(=O)N4CCOCC4)cc3)c(=O)oc2c(C=O)c1O [Example 119],< 1000,–,> 10
CCOC(=O)c1cnc(-c2cc3ccc(O)c(C=O)c3oc2=O)s1 [Example 106],< 100,< 10,–
Cc1c(-c2ccc(C(=O)N(C)C)cc2)c(=O)oc2c(C=O)c(O)ccc12 [Example 17],< 100,< 10,–
Cc1nc(N2CCc3c(ccc(O)c3C=O)C2)sc1C(=O)NC1CCNCC1 [Example 35],< 100,> 10,–
O=Cc1c(O)ccc2nc(SCC(=O)O)[nH]c12 [Example 63],< 100,> 10,–
Cc1c(CC(=O)N2CCN(C)CC2)c(=O)oc2c(C=O)c(O)ccc12 [Example 130],< 100,–,< 10
O=Cc1c(O)ccc2nc(-c3cccc(C(=O)O)c3)[nH]c12 [Example 64],< 100,> 10,–
O=Cc1c(O)ccc2c1CCN(Cc1ccccc1)C2 [Example 28],< 10000,> 10,–
COCCOc1cc(O)c(C=O)c2oc(=O)c(CCC(=O)N3CCN(C)CC3)c(C)c12 [Example 154],< 100,–,< 10
Cc1nc(-c2c(C)c3ccc(O)c(C=O)c3oc2=O)sc1C(=O)N1CCN(C)CC1 [Example 110],< 1000,–,< 10

SMILES,IC50 [1] [nM],"EC50 [2, 3] [µM]",EC50 [2] [µM]
COc1cc(O)c(C=O)c2oc(=O)c(CCC(=O)NCCN3CCOCC3)c(C)c12 [Example 196],< 100,< 10,–
COc1cc2c(C)c(CCC(=O)N3CCN(C)CC3)c(=O)oc2c(C=O)c1O [Example 173],< 100,–,< 10
Cc1c(-c2ccc(N3CCN(C)CC3)nc2)c(=O)oc2c(C=O)c(O)ccc12 [Example 14],< 100,< 10,–
COc1cc2c(C)c(CCC(=O)NCCN(C)C)c(=O)oc2c(C=O)c1O [Example 175],< 1000,> 10,–
COc1cc2c(C)c(CC(=O)NCCO)c(=O)oc2c(C=O)c1O [Example 148],< 100,> 10,–
COCCNC(=O)CCc1c(C)c2c(OCCOC)cc(O)c(C=O)c2oc1=O [Example 152],< 1000,< 10,–
COc1cc2c(C)c(-c3ccc(C(=O)N4CCOCC4)s3)c(=O)oc2c(C=O)c1O [Example 142],< 100,< 10,–
CCc1cc2c(C)c(-c3ccc(C(=O)NCCN4CCOCC4)cc3)c(=O)oc2c(C=O)c1O [Example 117],< 1000,–,< 10
COC(=O)c1cccc(-c2nc3ccc(O)c(C=O)c3[nH]2)c1 [Example 65],< 100,–,< 10
COCc1c(C)c(=O)oc2c(C=O)c(O)ccc12 [Example 137],< 100,< 10,–
CCOC(=O)Cc1c(C)c2cc(OC)c(O)c(C=O)c2oc1=O [Example 131],< 100,–,< 10
Cc1c(CCC(=O)NCCN2CCOCC2)c(=O)oc2c(C=O)c(O)ccc12 [Example 201],< 100,< 10,–
COc1cc2c(C)c(CCC(=O)NCCO)c(=O)oc2c(C=O)c1O [Example 147],< 100,> 10,–
COCCNC(=O)CCc1c(COC)c2cc(OC)c(O)c(C=O)c2oc1=O [Example 138],< 1000,> 10,–
COCCNC(=O)CCc1c(C)c2c(OC)cc(O)c(C=O)c2oc1=O [Example 194],< 100,< 10,–
COCc1c(CCC(=O)N2CCOCC2)c(=O)oc2c(C=O)c(O)c(OC)cc12 [Example 139],< 100,< 10,–
O=Cc1c(O)ccc2nc(-c3ccc(C(=O)N4CCOCC4)cc3)ccc12 [Example 44],< 1000,< 10,–
COc1cc2c(C)c(CC(=O)N3CCN(C)CC3)c(=O)oc2c(C=O)c1O [Example 168],< 100,< 10,–
COc1cc2c(C)c(-c3ccc(C(=O)N4CCN(C)CC4)cc3)c(=O)oc2c(C=O)c1O [Example 111],< 100,< 10,–

SMILES,IC50 [1] [nM],"EC50 [2, 3] [µM]",EC50 [2] [µM]
COc1cc2c(C)c(-c3ccc(N4CCOCC4)nc3)c(=O)oc2c(C=O)c1O [Example 114],< 1000,< 10,–
Cc1nc(N2CCc3c(ccc(O)c3C=O)C2)sc1C(=O)NCCN1CCOCC1 [Example 37],< 100,> 10,–
O=Cc1c(O)ccc2cc(C(=O)O)c(=O)oc12 [Example 8],> 10000,–,> 10
Cc1c(-c2ccc(N3CCN(C)CC3)cc2)c(=O)oc2c(C=O)c(O)c(F)cc12 [Example 24],< 100,< 10,–
COc1cc2c(C(F)(F)F)cc(=O)oc2c(C=O)c1O [Example 197],< 1000,< 10,–
Cc1nc(N2CCc3c(ccc(O)c3C=O)C2)sc1C(=O)NC1CCN(C)CC1 [Example 36],< 1000,> 10,–
COc1cc2c(C)c(C)c(=O)oc2c(C=O)c1O [Example 199],< 100,> 10,–
COCCOc1cc(O)c(C=O)c2oc(=O)c(CCC(=O)N3CCOCC3)c(C)c12 [Example 153],< 100,< 10,–
CN1CCN(c2ncc(C(=O)N3CCc4c(ccc(O)c4C=O)C3)s2)CC1 [Example 38],< 100,> 10,–
COc1cc2c(CN(C)C)c(C)c(=O)oc2c(C=O)c1O [Example 133],< 100,< 10,–
Cc1c(/C=C/C(=O)N2CCN(C)CC2)c(=O)oc2c(C=O)c(O)ccc12 [Example 112],< 100,< 10,–
COc1cc2c(C)c(-c3ccc(N4CCN(C)CC4)nc3)c(=O)oc2c(C=O)c1O [Example 113],< 100,–,< 10
COc1cc(O)c(C=O)c2oc(=O)c(CC(=O)NCCN3CCOCC3)c(C)c12 [Example 179],< 1000,< 10,–
COCCOc1cc2c(C)c(CCC(=O)N3CCN(C)CC3)c(=O)oc2c(C=O)c1O [Example 182],< 100,< 10,–
Cc1c(-c2ccc(C(=O)NCCN3CCOCC3)cc2)c(=O)oc2c(C=O)c(O)ccc12 [Example 3],< 100,< 10,–
COc1cc2c(CN3CCOCC3)c(C)c(=O)oc2c(C=O)c1O [Example 132],< 100,< 10,–
COc1cc(O)c(C=O)c2oc(=O)c(CCC(=O)N3CCN(C)CC3)c(C)c12 [Example 193],< 100,< 10,–
COc1cc2c(C)c(CCC(=O)N3CCOCC3)c(=O)oc2c(C=O)c1O [Example 172],< 100,< 10,–
CCNC(=O)Cc1c(C)c2cc(OC)c(O)c(C=O)c2oc1=O [Example 169],< 100,< 10,–

# Reference: US9040714B2 (MannKind Corporation, priority 2010, dated 2015)
